# Test results reported in patent publication US8410178B2, “CIS 3,4-dihydroxy-2-(3-methylbutanoyl)-5-(3-methylbutyl)-4-(4-methylpentanoyl)cyclopent-2-en-1-derivatives, substantially enantiomerically pure compositions and methods” (KinDex Therapeutics, LLC, priority 2010, dated 2013).
# Where two headings read alike, the source gives them in different places.
# Experiments:
# [1] = tested on: Zucker diabetic fatty (ZDF) rats; assay: Glucose and triglyceride levels in a rat diabetes model; assay type: in vivo; conditions: 200 mg/kg orally twice a day
# Protocol: 64 six-week-old male Zucker diabetic fatty (ZDF) rats with glucose levels of 175-300 mg/dL were randomized and divided into eight dosing groups: 1) vehicle only (0.5% methylcellulose (w/v), 0.2% Tween 80 (w/v); negative control), 2) (+)-KDT501 25 mg/kg, 3) (+)-KDT501 50 mg/kg, 4) (+)-KDT501 100 mg/kg, 5) (+)-KDT501 200 mg/kg, 6) metformin 200 mg/kg (positive control), 7) metformin 200 mg/kg and (+)-KDT501 100 mg/kg, and 8) pioglitazone 30 mg/kg (positive control). Drugs were administered orally twice a day for 33 days.
# Animals were weighed at randomization and once per week thereafter, with administration dosages calculated based on the most recent body weight measurements. Blood samples were collected by tail bleed three days prior to randomization, at randomization, and at days 15 and 29 after the start of treatment. These blood samples were used to perform whole blood glucose evaluations using a glucometer, as well as to measure blood triglyceride levels. Body composition was tested by qNMR on days 2 and 29 after the start of treatment. An oral glucose tolerance test (OGTT) was performed on days 31 and 32 after the start of treatment. Rats underwent an overnight fast prior to OGTT, and tail bleeds for glucose and insulin were performed pre-glucose bolus and at 15, 30, 60, 90, and 120 minutes post-glucose bolus. The glucose bolus was 2 g dextrose/kg of body weight. On day 33, a cardiac puncture was performed for PK analysis.
# [2] = tested on: diet induced obese (DIO) mice; assay: Glucose, insulin, HbA1C and fat mass in high fat diet-induced obesity (DIO) mouse model; assay type: in vivo; conditions: 200 mg/kg orally twice a day
# Protocol: 14 week-old male mice were randomized and divided into seven dosing groups with 16 animals in each group: 1) vehicle only (0.5% methylcellulose (w/v), 0.2% Tween 80 (w/v); negative control), 2) (+)-KDT501 25 mg/kg, 3) (+)-KDT501 50 mg/kg, 4) (+)-KDT501 100 mg/kg, 5) (+)-KDT501 200 mg/kg, 6) metformin 200 mg/kg (positive control), and 7) pioglitazone 30 mg/kg (positive control). Drugs were administered orally twice a day for 30 days.
# Animals were weighed at randomization and once per week thereafter, with administration dosages calculated based on the most recent body weight measurements. The mice were maintained on a high fat diet (40% Kcal) (TD95217; prepared by Covance Laboratories, Greenfield, Ind.). Body composition was tested by qNMR on days −5 and 28 after the start of treatment. […]. An oral glucose tolerance test (OGTT) was performed on day 30 after the start of treatment. Mice underwent an overnight fast prior to OGTT, and tail bleeds for glucose and insulin were performed pre-glucose bolus and at 15, 30, 60, 90, and 120 minutes post-glucose bolus. The glucose bolus was 2 g dextrose/kg of body weight. OGTT results were evaluated by area under the curve (AUC) measurements and Dunnett's test.
# GPR120 = molecular target: T1, GPR120 (Homo sapiens, UniProt Q5NUL3); assay: GPR120 activity, intracellular calcium response in CHO-K1/GPR120/Gα15 cells; assay type: cell-based
# T1 sequence (Q5NUL3 1-361): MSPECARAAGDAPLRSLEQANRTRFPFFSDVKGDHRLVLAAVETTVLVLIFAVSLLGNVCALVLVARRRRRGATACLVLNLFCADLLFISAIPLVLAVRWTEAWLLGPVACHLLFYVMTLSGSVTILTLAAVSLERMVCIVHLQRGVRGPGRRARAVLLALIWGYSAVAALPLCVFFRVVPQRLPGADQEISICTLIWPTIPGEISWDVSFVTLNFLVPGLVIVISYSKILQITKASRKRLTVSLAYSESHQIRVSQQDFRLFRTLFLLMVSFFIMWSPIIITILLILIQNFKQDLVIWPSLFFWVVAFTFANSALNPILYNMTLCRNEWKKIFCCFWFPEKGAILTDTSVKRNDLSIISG
# Protocol: GPR120 activity was measured by intracellular calcium response. CHO-K1/GPR120/Gα15 cells were regularly passaged to maintain optimal cell health and cultured in Ham's F12 supplemented with 10% fetal bovine serum, 200 μg/mL zeocin, and 100 μg/mL hygromycin. Cells were seeded in a 384-well black-wall, clear-bottom plate at a density of 20,000 cell per well in 20 μL of growth medium 18 hours prior to the start of the experiment, and maintained at 37° C./5% CO2. Cells were loaded with calcium-4, and baseline fluorescence readings were obtained from 1 second to 20 seconds using a fluorescent imaging plate reader (FLIPR). At 20 seconds, (+)-KDT501 (5× final concentration) was added to the reading plate, and the fluorescence signal was monitored for 100 seconds (21 seconds to 120 seconds). α-linolenic acid (LA), eicosapentaenoic acid (EPA), and docosahexaenoic acid (DHA) were used as controls. Data acquisition and analysis was performed using ScreenWorks (version 3.1) and exported to Excel. The average fluorescence value for the first 20 seconds was calculated as the baseline reading. The relative fluorescent unit (ΔRFU) intensity values were calculated with the maximal fluorescent units (21 s to 120 s), subtracting the baseline reading. Data analysis wizard written by GenScript was used to analyze EC50. Dose response curves of antagonist were fitted using the GraphPad Prism 4 four parameter logistic equation Y=Bottom+(Top−Bottom)/(1+10^((LogIC50−X)*HillSlope)), where X is the logarithm of concentration and Y is response.
# PPARγ = molecular target: T2, PPARγ (Homo sapiens, UniProt P37231); assay: PPARγ luciferase reporter assay; assay type: cell-based; conditions: reporter cells, 20 hours
# T2 sequence (P37231 1-505): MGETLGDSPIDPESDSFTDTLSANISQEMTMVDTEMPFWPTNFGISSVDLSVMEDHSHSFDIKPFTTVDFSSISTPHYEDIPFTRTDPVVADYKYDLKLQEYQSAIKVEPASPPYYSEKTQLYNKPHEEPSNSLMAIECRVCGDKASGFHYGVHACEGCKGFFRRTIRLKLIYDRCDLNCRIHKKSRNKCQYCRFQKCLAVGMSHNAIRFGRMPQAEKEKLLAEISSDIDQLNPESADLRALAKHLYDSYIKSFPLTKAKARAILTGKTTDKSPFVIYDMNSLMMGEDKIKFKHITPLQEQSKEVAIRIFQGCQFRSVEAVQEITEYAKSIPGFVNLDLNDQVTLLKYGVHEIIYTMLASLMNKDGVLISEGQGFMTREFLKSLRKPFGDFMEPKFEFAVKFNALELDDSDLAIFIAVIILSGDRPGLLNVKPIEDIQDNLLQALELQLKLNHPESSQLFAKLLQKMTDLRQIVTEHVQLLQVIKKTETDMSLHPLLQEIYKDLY
# Protocol: The functional effect of (+)-KDT501 on PPARα, PPARδ, and PPARγ activity was evaluated using a PPAR reporter assay (INDIGO Biosciences, PA). This assay utilizes non-human mammalian cells engineered to provide constitutive high level expression of PPARα, PPARδ, or PPARγ and containing a luciferase report gene specific to the appropriate PPAR. Following activation by agonist binding, PPAR induces expression of the luciferase reporter gene. Luciferase activity therefore provides a surrogate for measuring PPAR activity in agonist-treated cells.
# Reporter cells were plated on a 96-well plate at 100 μL per well, and 100 μL of (+)-KDT501 at various final concentrations (25, 12.5, 6.25, 3.125, 1.56 and 0.78 μM) was added to each well. […] 0.1% DMSO was also used as a negative control for each assay. Plates are incubated for 20 hours in a humidified incubator at 37° C. and 5% CO2. After incubation, cell medium was discarded and the cells were treated with 100 μL of luciferase detection reagent for 15 minutes. Plates were analyzed using a luminometer (Victor2, Perkin Elmer). Average relative light unit (RLU) and standard deviation were analyzed using GraphPad Prism.
# The PPAR activity assays were repeated as described above using both (+)-KDT501(12.5, 6.25, 3.125, 1.56, and 0.78 μM) and (−)-KDT501 (25, 12.5, 6.25, 3.125, 1.56, and 0.78 μM).
# [3] = CHO-K1/GPR120/Gα15 cells, calcium response, read-out: GPR120 agonistic activity EC50
smiles,measurement,setting,value
"CN(C)C(=N)N=C(N)N [metformin, reference compound]",whole blood glucose levels,[1],slight increase
same,triglyceride levels,[1]; days 15 and 29,increase
same,HbA1C,"[2]; day 29, versus vehicle-only",significant difference
same,blood glucose levels from the OGTT,[2]; day 30,significant decrease
same,insulin levels from the OGTT,[2]; day 30,significant decrease
same,fat mass,[2]; qNMR day 28,reduction in fat mass
"CC/C=C\C/C=C\C/C=C\CCCCCCCC(=O)O [α-LA, α-linolenic acid]",EC50,GPR120,36.1 µM
"CC/C=C\C/C=C\C/C=C\C/C=C\C/C=C\CCCC(=O)O [EPA, eicosapentaenoic acid]",EC50,GPR120; [3],116 µM
"CCCc1nc2c(C)cc(-c3nc4ccccc4n3C)cc2n1Cc1ccc(-c2ccccc2C(=O)O)cc1 [Telmisartan, telmisartan, reference compound]",PPARγ activity,PPARγ,increased PPARγ activity
"CC/C=C\C/C=C\C/C=C\C/C=C\C/C=C\C/C=C\CCC(=O)O [DHA, docosahexaenoic acid]",EC50,GPR120; [3],35.3 µM
